Assay results as given in publication PMC4620497 (Scientific Reports, 2015).

How the values were obtained:
[1] = target: T1, CAMK4 (Homo sapiens, UniProt Q16566); parameters: method as in earlier work; conditions: Table S1; cited from earlier work
T1 construct: purchased DiscoveRx KINOMEscan (Ambit Biosciences)
T1 sequence (Q16566 1-473): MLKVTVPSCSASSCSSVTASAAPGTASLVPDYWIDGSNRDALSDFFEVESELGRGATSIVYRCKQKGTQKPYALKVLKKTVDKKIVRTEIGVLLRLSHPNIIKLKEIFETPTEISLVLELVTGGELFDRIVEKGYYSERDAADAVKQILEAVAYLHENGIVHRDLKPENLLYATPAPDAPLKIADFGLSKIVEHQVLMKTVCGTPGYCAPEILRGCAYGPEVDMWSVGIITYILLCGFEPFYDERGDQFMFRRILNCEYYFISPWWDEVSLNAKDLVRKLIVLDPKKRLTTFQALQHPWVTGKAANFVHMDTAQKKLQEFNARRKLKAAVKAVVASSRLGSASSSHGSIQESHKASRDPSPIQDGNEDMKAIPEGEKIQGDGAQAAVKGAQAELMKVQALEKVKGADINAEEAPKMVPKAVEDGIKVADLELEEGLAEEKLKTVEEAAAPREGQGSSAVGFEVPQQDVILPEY

[2] = system: phosphorylation of FLT3, STAT5 and Erk1/2 in MV4-11 cells; assay: Western blot of FLT3 signaling in MV4-11 cells; type: cell-based, human; conditions: 1 h treatment
Procedure: Western blot analysis was performed as previously described[43]. […] Quantitative analysis of the protein level was performed with NIH image analysis software, ImageJ (normalized relative to the vehicle control).
The phosphorylation levels of FLT3 and downstream signal proteins were detected used the same method as that in panel a.

[3] = target: T2, ERBB3 (Homo sapiens, UniProt P21860); assay: KINOMEscan panel screen; type: binding; conditions: read-out: Percent Control(%)
T2 construct: purchased DiscoveRx KINOMEscan (Ambit Biosciences)

[4] = target: T3, IKK-beta (Homo sapiens, UniProt O14920); assay: KINOMEscan panel screen; type: binding; conditions: read-out: Percent Control(%)
T3 construct: purchased DiscoveRx KINOMEscan (Ambit Biosciences)

[5] = target: T4, PAK7 (Homo sapiens, UniProt Q9P286); assay: KINOMEscan panel screen; type: binding; conditions: read-out: Percent Control(%)
T4 construct: purchased DiscoveRx KINOMEscan (Ambit Biosciences)
T4 sequence (Q9P286 whole entry): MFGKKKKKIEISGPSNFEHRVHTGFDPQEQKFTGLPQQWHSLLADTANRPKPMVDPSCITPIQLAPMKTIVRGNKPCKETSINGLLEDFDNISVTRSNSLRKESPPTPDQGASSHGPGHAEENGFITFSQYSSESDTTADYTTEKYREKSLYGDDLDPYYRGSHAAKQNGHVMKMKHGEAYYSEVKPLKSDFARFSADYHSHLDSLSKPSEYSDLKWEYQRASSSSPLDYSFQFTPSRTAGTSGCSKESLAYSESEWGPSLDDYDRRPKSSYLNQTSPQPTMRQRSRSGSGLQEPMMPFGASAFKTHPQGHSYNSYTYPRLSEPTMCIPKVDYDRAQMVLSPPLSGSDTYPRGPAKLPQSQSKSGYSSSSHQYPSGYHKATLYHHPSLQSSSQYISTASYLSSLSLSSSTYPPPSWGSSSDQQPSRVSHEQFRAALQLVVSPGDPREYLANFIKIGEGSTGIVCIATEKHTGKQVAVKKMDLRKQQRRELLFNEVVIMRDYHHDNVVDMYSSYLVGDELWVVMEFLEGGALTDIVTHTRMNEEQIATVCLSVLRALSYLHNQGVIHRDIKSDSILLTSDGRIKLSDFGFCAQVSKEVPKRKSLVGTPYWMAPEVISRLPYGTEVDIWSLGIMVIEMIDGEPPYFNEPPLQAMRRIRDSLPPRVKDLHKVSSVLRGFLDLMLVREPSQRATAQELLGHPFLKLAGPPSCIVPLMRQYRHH

[6] = target: T5, DMPK2 (Homo sapiens, UniProt Q6DT37); assay: KINOMEscan panel screen; type: binding; conditions: read-out: Percent Control(%)
T5 construct: purchased DiscoveRx KINOMEscan (Ambit Biosciences)

[7] = target: T6, EPHA7 (Homo sapiens, UniProt Q15375); assay: KINOMEscan panel screen; type: binding; conditions: read-out: Percent Control(%)
T6 construct: purchased DiscoveRx KINOMEscan (Ambit Biosciences)

[8] = target: ERBB2 (Homo sapiens, UniProt P04626); assay: KINOMEscan kinase binding assay (Kd)
[9] = target: T7, RPS6KA4(Kin.Dom.2-C-terminal) (Homo sapiens, UniProt O75676); assay: KINOMEscan panel screen; type: binding; conditions: read-out: Percent Control(%)
T7 construct: RPS6KA4(Kin.Dom.2-C-terminal); purchased DiscoveRx KINOMEscan (Ambit Biosciences)

[10] = target: T8, PLK3 (Homo sapiens, UniProt Q9H4B4); assay: KINOMEscan panel screen; type: binding; conditions: read-out: Percent Control(%)
T8 construct: purchased DiscoveRx KINOMEscan (Ambit Biosciences)
T8 sequence (Q9H4B4 whole entry): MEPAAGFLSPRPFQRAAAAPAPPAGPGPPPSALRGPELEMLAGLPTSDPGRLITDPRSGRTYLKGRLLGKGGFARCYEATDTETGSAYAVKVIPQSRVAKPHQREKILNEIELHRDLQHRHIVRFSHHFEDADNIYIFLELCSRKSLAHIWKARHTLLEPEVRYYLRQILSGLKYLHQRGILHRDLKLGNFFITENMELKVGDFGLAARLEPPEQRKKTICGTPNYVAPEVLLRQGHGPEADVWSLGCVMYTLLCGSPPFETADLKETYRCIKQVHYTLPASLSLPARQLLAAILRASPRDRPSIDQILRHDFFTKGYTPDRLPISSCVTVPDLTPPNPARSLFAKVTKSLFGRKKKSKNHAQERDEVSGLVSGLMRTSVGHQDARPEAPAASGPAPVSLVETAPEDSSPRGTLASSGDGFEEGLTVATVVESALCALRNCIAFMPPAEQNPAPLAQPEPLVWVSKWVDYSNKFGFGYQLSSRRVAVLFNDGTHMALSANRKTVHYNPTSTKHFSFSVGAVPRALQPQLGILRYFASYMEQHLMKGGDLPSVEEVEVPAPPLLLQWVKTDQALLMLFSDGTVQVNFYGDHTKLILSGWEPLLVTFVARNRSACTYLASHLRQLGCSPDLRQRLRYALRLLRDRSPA

[11] = system: active β-catenin, NKD1, AXIN2 in MV4-11 tumors; assay: Wnt/β-catenin signaling in MV4-11 xenograft tumors (western blot, qPCR); type: in vivo, NOD-SCID mice; conditions: single oral dose 10 mg/kg
Procedure: Western blot assays and real-time qPCR assays were conducted on the harvested tumors.
Whole protein lysates of tumor samples were collected by the abrading of tumors in liquid nitrogen. […] Quantitative analysis of the protein level was performed with NIH image analysis software, ImageJ (normalized relative to the vehicle control).
Total RNA of cell samples and tumor samples was extracted using RNAsimple total RNA kit (TIANGEN) according to the manufacturer’s instructions. cDNA was generated using the iScript^TMcDNA Synthesis Kit (Bio-Rad), and the RT-PCR reactions were performed using SsoAdvanced SYBR Green Supermix (Bio-Rad). The reaction consisted of 40 cycles of denaturation at 95 °C for 5 s and annealing/extension for 30s at 60 °C.
The mice were assigned to 5 groups (n = 6 in each group). […] The mean values ± SD are shown. […] Representative images were shown.

[12] = target: T9, KIT(A829P) (Homo sapiens, UniProt P10721, A829P); assay: KINOMEscan panel screen; type: binding; conditions: read-out: Percent Control(%)
T9 construct: purchased DiscoveRx KINOMEscan (Ambit Biosciences)

[13] = target: T10, SIK2 (Homo sapiens, UniProt Q9H0K1); assay: KINOMEscan panel screen; type: binding; conditions: read-out: Percent Control(%)
T10 construct: purchased DiscoveRx KINOMEscan (Ambit Biosciences)
T10 sequence (Q9H0K1 whole entry): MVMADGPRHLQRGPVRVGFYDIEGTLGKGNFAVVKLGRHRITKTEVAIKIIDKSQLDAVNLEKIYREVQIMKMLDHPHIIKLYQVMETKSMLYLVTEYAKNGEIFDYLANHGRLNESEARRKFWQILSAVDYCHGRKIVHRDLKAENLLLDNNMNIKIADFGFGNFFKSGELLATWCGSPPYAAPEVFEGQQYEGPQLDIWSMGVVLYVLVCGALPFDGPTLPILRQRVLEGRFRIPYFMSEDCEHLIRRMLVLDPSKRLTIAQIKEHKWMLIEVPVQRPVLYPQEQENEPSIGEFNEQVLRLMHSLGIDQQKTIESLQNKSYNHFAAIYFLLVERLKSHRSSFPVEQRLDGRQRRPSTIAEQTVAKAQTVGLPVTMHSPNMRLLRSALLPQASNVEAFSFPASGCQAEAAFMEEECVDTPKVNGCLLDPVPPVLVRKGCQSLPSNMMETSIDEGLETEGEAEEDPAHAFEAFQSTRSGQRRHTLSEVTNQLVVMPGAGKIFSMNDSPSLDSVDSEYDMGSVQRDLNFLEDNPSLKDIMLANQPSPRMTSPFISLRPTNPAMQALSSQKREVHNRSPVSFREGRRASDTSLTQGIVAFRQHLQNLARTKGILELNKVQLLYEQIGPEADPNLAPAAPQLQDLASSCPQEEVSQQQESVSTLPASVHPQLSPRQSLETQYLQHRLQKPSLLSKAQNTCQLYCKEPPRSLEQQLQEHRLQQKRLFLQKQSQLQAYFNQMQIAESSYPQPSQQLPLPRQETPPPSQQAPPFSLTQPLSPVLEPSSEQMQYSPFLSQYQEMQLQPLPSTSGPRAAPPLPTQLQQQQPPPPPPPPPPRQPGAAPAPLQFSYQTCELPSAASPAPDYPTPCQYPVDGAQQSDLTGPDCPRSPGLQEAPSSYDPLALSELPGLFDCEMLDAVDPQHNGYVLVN

[14] = system: H358; assay: MTT cell viability assay; conditions: Homo sapiens, NCI-H358, 72 h
[15] = target: T11, JAK1(JH1domain-catalytic) (Homo sapiens, UniProt P23458); assay: KINOMEscan panel screen; type: binding; conditions: read-out: Percent Control(%)
T11 construct: JAK1(JH1domain-catalytic); purchased DiscoveRx KINOMEscan (Ambit Biosciences)

[16] = target: T12, MYLK4 (Homo sapiens, UniProt Q86YV6); assay: KINOMEscan panel screen; type: binding; conditions: read-out: Percent Control(%)
T12 construct: purchased DiscoveRx KINOMEscan (Ambit Biosciences)
T12 sequence (Q86YV6 whole entry): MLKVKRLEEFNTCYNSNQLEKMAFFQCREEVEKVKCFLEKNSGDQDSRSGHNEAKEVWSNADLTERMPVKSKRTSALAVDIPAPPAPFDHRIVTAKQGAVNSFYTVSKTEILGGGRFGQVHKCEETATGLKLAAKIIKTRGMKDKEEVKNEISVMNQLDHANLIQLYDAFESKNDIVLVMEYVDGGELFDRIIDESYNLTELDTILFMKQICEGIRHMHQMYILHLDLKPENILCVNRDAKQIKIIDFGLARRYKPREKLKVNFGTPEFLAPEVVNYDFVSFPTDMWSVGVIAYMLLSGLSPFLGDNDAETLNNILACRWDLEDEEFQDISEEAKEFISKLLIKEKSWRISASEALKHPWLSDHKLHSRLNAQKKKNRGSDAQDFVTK

[17] = target: T13, RSK1(Kin.Dom.2-C-terminal) (Homo sapiens, UniProt Q15418); assay: KINOMEscan panel screen; type: binding; conditions: read-out: Percent Control(%)
T13 construct: RSK1(Kin.Dom.2-C-terminal); purchased DiscoveRx KINOMEscan (Ambit Biosciences)
T13 sequence (Q15418 418-675 limits assumed): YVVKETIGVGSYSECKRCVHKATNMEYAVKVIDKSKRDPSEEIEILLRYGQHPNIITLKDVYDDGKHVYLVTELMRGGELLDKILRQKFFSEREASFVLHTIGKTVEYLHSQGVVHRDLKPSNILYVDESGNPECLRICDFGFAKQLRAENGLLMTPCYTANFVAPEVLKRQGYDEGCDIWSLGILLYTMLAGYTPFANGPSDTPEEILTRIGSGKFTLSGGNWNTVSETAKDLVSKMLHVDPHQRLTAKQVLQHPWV

[18] = target: T14, PHKG1 (Homo sapiens, UniProt Q16816); assay: KINOMEscan panel screen; type: binding; conditions: read-out: Percent Control(%)
T14 construct: purchased DiscoveRx KINOMEscan (Ambit Biosciences)

[19] = target: T15, HIPK3 (Homo sapiens, UniProt Q9H422); assay: KINOMEscan panel screen; type: binding; conditions: read-out: Percent Control(%)
T15 construct: purchased DiscoveRx KINOMEscan (Ambit Biosciences)
T15 sequence (Q9H422 whole entry): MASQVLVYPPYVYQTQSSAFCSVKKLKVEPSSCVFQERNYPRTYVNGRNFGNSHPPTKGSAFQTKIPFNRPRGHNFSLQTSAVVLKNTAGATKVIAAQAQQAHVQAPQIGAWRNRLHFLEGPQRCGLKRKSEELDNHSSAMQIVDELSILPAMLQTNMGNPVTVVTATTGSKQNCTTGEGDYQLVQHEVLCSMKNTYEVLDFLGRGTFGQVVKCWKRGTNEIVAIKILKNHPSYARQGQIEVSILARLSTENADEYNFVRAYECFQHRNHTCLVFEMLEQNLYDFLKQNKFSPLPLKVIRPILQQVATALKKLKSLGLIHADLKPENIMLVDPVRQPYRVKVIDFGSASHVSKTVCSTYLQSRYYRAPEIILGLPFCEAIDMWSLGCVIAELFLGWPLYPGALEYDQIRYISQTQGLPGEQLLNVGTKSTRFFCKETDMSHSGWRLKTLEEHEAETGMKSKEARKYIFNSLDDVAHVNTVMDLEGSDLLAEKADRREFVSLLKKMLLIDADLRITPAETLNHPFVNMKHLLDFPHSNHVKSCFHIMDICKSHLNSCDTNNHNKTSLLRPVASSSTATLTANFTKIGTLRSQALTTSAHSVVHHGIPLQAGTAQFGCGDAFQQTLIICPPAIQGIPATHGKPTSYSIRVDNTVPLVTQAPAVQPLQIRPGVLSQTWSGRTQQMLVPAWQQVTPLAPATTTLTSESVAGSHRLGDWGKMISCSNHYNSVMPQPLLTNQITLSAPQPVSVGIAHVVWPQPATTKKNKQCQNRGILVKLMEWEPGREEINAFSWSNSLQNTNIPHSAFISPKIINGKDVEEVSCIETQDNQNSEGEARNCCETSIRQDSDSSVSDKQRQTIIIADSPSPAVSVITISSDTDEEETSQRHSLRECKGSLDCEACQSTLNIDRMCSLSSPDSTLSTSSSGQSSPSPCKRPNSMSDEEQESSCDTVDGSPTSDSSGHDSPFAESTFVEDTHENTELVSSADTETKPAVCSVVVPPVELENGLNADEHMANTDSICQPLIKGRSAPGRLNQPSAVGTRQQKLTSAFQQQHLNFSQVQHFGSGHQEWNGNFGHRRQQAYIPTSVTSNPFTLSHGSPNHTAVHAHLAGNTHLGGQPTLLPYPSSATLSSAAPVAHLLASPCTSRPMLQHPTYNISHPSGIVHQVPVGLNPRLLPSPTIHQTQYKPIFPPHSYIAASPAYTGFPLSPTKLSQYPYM

[20] = target: T16, TAOK2 (Homo sapiens, UniProt Q9UL54); assay: KINOMEscan panel screen; type: binding; conditions: read-out: Percent Control(%)
T16 construct: purchased DiscoveRx KINOMEscan (Ambit Biosciences)

[21] = target: T17, SYK (Homo sapiens, UniProt P43405); assay: KINOMEscan panel screen; type: binding; conditions: read-out: Percent Control(%)
T17 construct: purchased DiscoveRx KINOMEscan (Ambit Biosciences)

[22] = target: T18, PIK3CA(I800L) (Homo sapiens, UniProt P42336, I800L); assay: KINOMEscan panel screen; type: binding; conditions: read-out: Percent Control(%)
T18 construct: purchased DiscoveRx KINOMEscan (Ambit Biosciences)

[23] = target: T19, RET(M918T) (Homo sapiens, UniProt P07949, M918T); assay: KINOMEscan panel screen; type: binding; conditions: read-out: Percent Control(%)
T19 construct: purchased DiscoveRx KINOMEscan (Ambit Biosciences)

[24] = target: T20, AKT3 (Homo sapiens, UniProt Q9Y243); assay: KINOMEscan panel screen; type: binding; conditions: read-out: Percent Control(%)
T20 construct: purchased DiscoveRx KINOMEscan (Ambit Biosciences)

[25] = target: T21, p38-gamma (Homo sapiens, UniProt P53778); assay: KINOMEscan panel screen; type: binding; conditions: read-out: Percent Control(%)
T21 construct: purchased DiscoveRx KINOMEscan (Ambit Biosciences)

[26] = target: T22, YSK1 (Homo sapiens, UniProt O00506); assay: KINOMEscan panel screen; type: binding; conditions: read-out: Percent Control(%)
T22 construct: purchased DiscoveRx KINOMEscan (Ambit Biosciences)
T22 sequence (O00506 whole entry): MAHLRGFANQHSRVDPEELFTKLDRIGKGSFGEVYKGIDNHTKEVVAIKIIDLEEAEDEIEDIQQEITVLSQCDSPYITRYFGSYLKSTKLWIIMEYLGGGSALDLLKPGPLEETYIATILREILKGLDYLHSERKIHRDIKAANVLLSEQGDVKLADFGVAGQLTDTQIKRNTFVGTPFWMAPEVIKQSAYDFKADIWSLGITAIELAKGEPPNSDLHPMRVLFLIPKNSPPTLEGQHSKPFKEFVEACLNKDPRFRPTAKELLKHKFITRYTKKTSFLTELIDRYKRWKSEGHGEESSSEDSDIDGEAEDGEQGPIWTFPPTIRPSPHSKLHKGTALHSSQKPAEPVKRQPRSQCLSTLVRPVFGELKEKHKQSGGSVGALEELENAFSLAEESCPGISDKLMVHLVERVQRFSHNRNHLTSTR

[27] = target: T23, YSK4 (Homo sapiens, UniProt Q56UN5); assay: KINOMEscan panel screen; type: binding; conditions: read-out: Percent Control(%)
T23 construct: purchased DiscoveRx KINOMEscan (Ambit Biosciences)

[28] = target: T24, RIPK5 (Homo sapiens, UniProt Q6XUX3); assay: KINOMEscan panel screen; type: binding; conditions: read-out: Percent Control(%)
T24 construct: purchased DiscoveRx KINOMEscan (Ambit Biosciences)

[29] = target: T25, IRAK4 (Homo sapiens, UniProt Q9NWZ3); assay: KINOMEscan panel screen; type: binding; conditions: read-out: Percent Control(%)
T25 construct: purchased DiscoveRx KINOMEscan (Ambit Biosciences)
T25 sequence (Q9NWZ3 whole entry): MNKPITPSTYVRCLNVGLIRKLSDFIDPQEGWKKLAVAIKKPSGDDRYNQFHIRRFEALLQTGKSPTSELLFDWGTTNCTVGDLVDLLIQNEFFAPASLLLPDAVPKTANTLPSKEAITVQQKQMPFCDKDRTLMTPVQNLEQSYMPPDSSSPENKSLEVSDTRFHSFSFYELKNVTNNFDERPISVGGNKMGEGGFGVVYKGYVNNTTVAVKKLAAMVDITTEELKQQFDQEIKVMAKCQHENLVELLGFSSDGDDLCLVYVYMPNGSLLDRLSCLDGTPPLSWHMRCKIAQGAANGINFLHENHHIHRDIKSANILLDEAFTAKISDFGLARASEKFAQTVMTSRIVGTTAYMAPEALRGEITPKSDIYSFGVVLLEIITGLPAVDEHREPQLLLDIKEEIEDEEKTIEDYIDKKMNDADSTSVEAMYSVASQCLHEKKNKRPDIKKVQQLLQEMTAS

O=C(Nc1ccc(Oc2ncnc3[nH]ncc23)cc1)Nc1ccc(Cl)c(C(F)(F)F)c1 [Compound 1, 1-(4-(1H-pyrazolo[3,4-d]pyrimidin-4-yloxy)phenyl)-3-(4-chloro-3-(trifluoromethyl)phenyl)urea]
IC50 [1]: > 10 µM

CC(C)(C)c1cc(NC(=O)Nc2ccc(Oc3ncnc4[nH]ncc34)c(F)c2)no1 [SKLB-677, 1-(4-(1H-pyrazolo[3,4-d]pyrimidin-4-yloxy)-3-fluorophenyl)-3-(5-tert-butylisoxazol-3-yl)urea]
concentration at which activation of STAT5 and Erk1/2 was efficiently inhibited [2]: higher than 1 nM
IC50 ([2]; Homo sapiens, read-out: IC50, reduction in the phosphorylation level of FLT3): ~0.0001 µM
remaining binding at 10 µM [3]: 98%
remaining binding at 10 µM [4]: 64%
remaining binding at 10 µM [5]: 100%
remaining binding at 10 µM [6]: 50%
remaining binding at 10 µM [7]: 0%
Kd [8]: > 10 µM
remaining binding at 10 µM [9]: 78%
remaining binding at 10 µM [10]: 100%
mRNA level of NKD1 and AXIN2 in tumors [11]: down-regulated
protein levels of active β-catenin and NKD1 in tumors [11]: induced the reduction
remaining binding at 10 µM [12]: 15%
remaining binding at 10 µM [13]: 69%
IC50 [14]: 8 µM
remaining binding at 10 µM [15]: 12%
remaining binding at 10 µM [16]: 78%
remaining binding at 10 µM [17]: 94%
remaining binding at 10 µM [18]: 85%
remaining binding at 10 µM [19]: 1.2%
remaining binding at 10 µM [20]: 0.35%
remaining binding at 10 µM [21]: 25%
remaining binding at 10 µM [22]: 87%
remaining binding at 10 µM [23]: 0%
remaining binding at 10 µM [24]: 100%
remaining binding at 10 µM [25]: 3.7%
remaining binding at 10 µM [26]: 35%
remaining binding at 10 µM [27]: 0.15%
remaining binding at 10 µM [28]: 98%
remaining binding at 10 µM [29]: 100%
